Assay results from article PMC10917278, “Structural insights into the modulation Of SOD1 aggregation By a fungal metabolite Phialomustin-B: Therapeutic potential in ALS” (PLOS ONE, 2024).

Molecular target: T1, SOD1^A4V (Homo sapiens, UniProt P00441, A5V)
T1 construct: The full-length constructs of SOD1-wild type (aa: 1–145) and its corresponding SOD1 disease mutant, SOD1^A4V; His-tag (cleaved yes); made in house; host or cells: E. coli BL21 DE3
Assay: Thioflavin T (ThT) fluorescence aggregation assay, SOD1^A4V
Type: biochemical
Conditions: for kapp / t50 / tlag: 37 °C, reduced conditions
Protocol: Following the co-crystal structure elucidation of SOD1 in complex with PB, we wanted to identify the effect of PB on the aggregation of SOD1^WT and its disease mutant, SOD1^A4V. A comprehensive analysis of the anti-aggregation propensity of PB was performed using a ThT-based fluorescence assay and analytical size-exclusion based chromatography (SEC) assay. We used Thioflavin-T, a β-sheet formation reporter, to assess the aggregation of SOD1. Time lag (tlag) is a kinetic parameter used to evaluate the lag phase of fibrillation. Fibril elongation was used to evaluate the rate of β sheet formation. […] Similar effects on lag time are also observed for SOD1^A4V. […] Moreover, ThT-based aggregation assays were also performed for the PB site-specific mutants, SOD1^A123F, SOD1^K9F, SOD1^L42R, and SOD1^G10P (S4a, S4c, S4e and S4g Fig). As expected based on the abovementioned MST results, the aggregation analysis is inconclusive as these mutants, which correspond to the ligand binding residues, cause a loss of protein-ligand interactions.
Fig 6 Aggregation studies of metallated and reduced SOD1^WT and SOD1^A4V on treatment with PB. ThT fluorescence was monitored during the co-incubation of metallated SOD1^WT (50 μM) (a) or SOD1^A4V (50 μM) (b) with PB at 1:30 molar ratio at 37 °C with continuous shaking, under reduced conditions. The values were normalized to the maximal ThT intensity elicited by SOD1^WT or SOD1^A4V and fitted to a Boltzmann sigmoidal equation. The control and PB-treated species were compared to analyse the effects of PB on the aggregation of SOD1^WT and SOD1^A4V. Error bars indicate the standard deviation. Analytical SEC of metallated SOD1^WT (50 μM) (c) and SOD1^A4V (50 μM) (d) with PB were analyzed under reducing conditions before and after 24 hrs and 48 hrs incubation at 37 °C. The first peak eluting at the volume was denoted as oligomerized SOD1^WT/SOD1^A4V (L). The second, third, and fourth peaks were calculated as trimer (T), dimer (D), and monomer (M) species of SOD1^WT/SOD1^A4V running at 14.5 ml, 15.7 ml, and 16.5 ml, respectively. […] The monomer (M), dimer (D), trimer (T), and large aggregate (L) species are shown as green, purple, red, and black dotted lines, respectively. All the experiments were performed for n = 3 biological replicates.
Fig 7 Aggregation studies of de-metallated and reduced SOD1^WT and SOD1^A4V on treatment with PB. ThT fluorescence was monitored during the co-incubation of de-metallated SOD1^WT (50 μM) (a) or SOD1^A4V (50 μM) (b) with PB at 1:30 molar ratio at 37 °C with continuous shaking, under reduced conditions. The values were normalized to the maximal ThT intensity elicited by SOD1^WT or SOD1^A4V and fitted to a Boltzmann sigmoidal equation. The control and PB-treated species were compared to analyse PB’s effects on the aggregation of SOD1^WT and SOD1^A4V. Analytical SEC of de-metallated SOD1^WT (50 μM) (a) and SOD1^A4V (50 μM) (b) with PB were analysed under reducing conditions before and after 24 hrs and 48 hrs incubation at 37 °C. The first peak eluting at the volume was denoted as oligomerized SOD1^WT (L) runs at 9.2 ml. The second, third, and fourth peaks were calculated as trimer (T), dimer (D), and monomer (M) species of SOD1^WT/SOD1^A4V running at 14.5 ml, 15.7 ml, and 16.5 ml, respectively. […] In the case of SOD1^A4V, PB eliminates the formation of large aggregates compared to the control (48hrs-EC, EC represents control with EDTA). The monomer (M), dimer (D), trimer (T), and large aggregate (L) species are shown as green, purple, red, and black dotted lines, respectively. All the experiments were performed for n = 3 biological replicates.
Aggregation assays were performed on SOD1^WT, the disease mutant A4V, and ligand-binding site-specific mutants to check the anti-aggregation activity of PB on the former. […] The ThT assay for the SOD1 aggregation was carried out per the recently published protocol. […]

[1] = De-metallated (5 mM EDTA) SOD1^A4V 50 μM with PB at 1:30 molar ratio
[2] = Metallated SOD1^A4V 50 μM with PB at 1:30 molar ratio

T1 sequence (P00441 whole entry A5V): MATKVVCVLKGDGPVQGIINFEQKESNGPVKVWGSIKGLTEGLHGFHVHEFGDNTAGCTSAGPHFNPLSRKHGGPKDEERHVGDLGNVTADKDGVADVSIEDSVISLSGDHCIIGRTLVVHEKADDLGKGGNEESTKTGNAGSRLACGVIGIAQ

kapp [1]: 0.05 h⁻¹
t50 [1]: 13.57 h
tlag [1]: 13.55 h
kapp [2]: 0.07 h⁻¹
t50 [2]: 10.45 h
tlag [2]: 10.44 h
ThT signal of SOD1^A4V aggregation (Metallated SOD1^A4V 50 μM, PB 1:30, versus control): drastic reduction in the ThT signal
Compound: CCCC[C@H](C)/C=C(C)/C=C/C(=O)O [PB, (S, 2E, 4E)-4,6-dimethyldeca-2,4-dienoic acid]
